# The source made the active and inactive calls. The rule behind the calls is not given here.
# Key:
# T-24 [1] = assay: Induction of DNA damage in human T24 cells assessed as increase in […] p53 expression at 2 to 4 uM incubated for 24 hrs by Western blot analysis; type: functional, cell-based; conditions: dose 2-4 µM
# T-24 [2] = assay: Inhibition of cell migration in human T24 cells assessed as recovery of wound area at 1 uM measured after 24 hrs by wound healing assay based fluorescence microscopy; type: functional; set-up: scale not given: the % may be the effect or the level left
# T-24 [3] = assay: Induction of cell cycle arrest in human T24 cells assessed as upregulation of Cyclin E expression at 2 to 4 uM incubated for 24 hrs by chemiluminescence based Western blotting analysis; type: functional; conditions: dose 2-4 µM
# T-24 [4] = assay: Induction of mitochondrial mediated apoptosis in human T24 cells assessed as upregulation of cytochrome c expression at 2 to 4 uM incubated for 24 hrs by Western blotting analysis; type: functional, cell-based; conditions: dose 2-4 µM
# T-24 [5] = assay: Induction of ROS accumulation in human T24 cells assessed as increase in intracellular ROS level at 2 uM by […] based flow cytometry; type: functional, cell-based
# T-24 [6] = assay: Induction of mitochondrial ROS generation in human T24 cells at 2 uM measured after 24 hrs by DCFH-DA staining based confocal microscopy method; type: functional, cell-based
# T-24 [7] = assay: Induction of Ca2+ production in human T24 cells assessed as increase in intracellular Ca2+ concentration at 2 uM by Fluo3-AM staining based fluorescence microscopic method; type: functional, cell-based
# T-24 [8] = assay: Induction of apoptosis in human T24 cells assessed as increase in caspase 9 activity at 4 uM (Rvb= 7.2%); type: functional
# T-24 [9] = assay: Induction of cell cycle arrest in human T24 cells assessed as accumulation of cells at G2/M phase at 4 uM incubated for 24 hrs by propidium iodide/RNase A staining based flow cytometry analysis (reference value: 5.82 %); type: functional
# T-24 [10] = assay: Induction of apoptosis in human T24 cells assessed as necrotic cells at 6 uM incubated for 24 hrs by Annexin-V/PI staining based flow cytometry analysis (reference value: 1.92 %); type: functional
# T-24 [11] = assay: Induction of apoptosis in human T24 cells assessed as condensed chromatin at 2 uM by Hoechst33258 staining based fluorescence microscopy; type: functional, cell-based
# T-24 [12] = assay: Induction of DNA damage in human T24 cells assessed as increase in […] p53 expression at 0.5 to 1 uM incubated for 24 hrs by Western blot analysis; type: functional, cell-based; conditions: dose 0.5-1 µM
# T-24 [13] = assay: Induction of mitochondrial mediated apoptosis in human T24 cells assessed as increase in Bak protein expression at 0.5 to 1 uM incubated for 24 hrs by Western blotting analysis; type: functional, cell-based; conditions: dose 0.5-1 µM
# T-24 [14] = assay: Induction of mitochondrial ROS generation in human T24 cells at 0.5 uM measured after 24 hrs by Mitotracker Red dye based confocal microscopy method; type: functional, cell-based
# T-24 [15] = assay: Induction of apoptosis in human T24 cells assessed as increase in caspase 9 activity at 1 uM (Rvb= 7.2%); type: functional
# T-24 [16] = assay: Induction of cell cycle arrest in human T24 cells assessed as accumulation of cells at G2/M phase at 1 uM incubated for 24 hrs by propidium iodide/RNase A staining based flow cytometry analysis (reference value: 5.82 %); type: functional
# T-24 [17] = assay: Induction of cell cycle arrest in human T24 cells assessed as accumulation of cells at S phase at 1 uM incubated for 24 hrs by propidium iodide/RNase A staining based flow cytometry analysis (reference value: 42.47 %); type: functional
# T-24 [18] = assay: Induction of apoptosis in human T24 cells assessed as viable cells at 0.5 uM incubated for 24 hrs by Annexin-V/PI staining based flow cytometry analysis (reference value: 94.3 %); type: functional; conditions: read-out: Activity
# T-24 [19] = assay: Induction of mitochondrial membrane potential dysfunction in human T24 cells assessed as nuclear condensation at 0.5 to 1 uM by mito-tracker green dye based fluorescence microscopy; type: functional, cell-based; conditions: dose 0.5-1 µM
# T-24 [20] = assay: Induction of mitochondrial membrane potential dysfunction in human T24 cells assessed as disappearance of cristae at 0.5 uM incubated for 24 hrs by TEM analysis; type: functional, cell-based
# T-24 [21] = assay: Induction of mitochondrial membrane potential dysfunction in human T24 cells assessed as increase in fragmentation at 0.5 uM incubated for 24 hrs by TEM analysis; type: functional, cell-based
# T-24 [22] = assay: Inhibition of colony formation in human T24 cells upto 5 uM incubated for 24 hrs and measured for 10 days; type: functional; conditions: up to 5 µM
# [23] = Toxicity in human WI-38 cells assessed as wound closure at 5 uM measured after 24 hrs by fluorescence microscopy based wound healing assay; type: cell-based; conditions: wi-38, 24 h
# T-24 [24] = assay: Induction of cell cycle arrest in human T24 cells assessed as increase in Cyclin B expression at 10 to 15 uM incubated for 24 hrs by chemiluminescence based Western blotting analysis; type: functional; conditions: dose 10-15 µM, DDE = dose-dependent effect
# T-24 [25] = assay: Induction of mitochondrial membrane potential dysfunction in human T24 cells assessed as shrinking mitochondria at 10 uM incubated for 24 hrs by TEM analysis; type: functional, cell-based
# T-24 [26] = assay: Induction of mitochondrial mediated apoptosis in human T24 cells assessed as increase in Bak protein expression at 10 to 15 uM incubated for 24 hrs by Western blotting analysis; type: functional, cell-based; conditions: dose 10-15 µM
# T-24 [27] = assay: Induction of mitochondrial ROS generation in human T24 cells at 10 uM measured after 24 hrs by Mitotracker Red dye based confocal microscopy method; type: functional, cell-based
# T-24 [28] = assay: Induction of mitochondrial Ca2+ production in human T24 cells assessed as increase in intracellular Ca2+ concentration at 10 uM by Rhod2-AM staining based fluorescence microscopic method; type: functional, cell-based
# T-24 [29] = assay: Induction of apoptosis in human T24 cells assessed as increase in caspase 3 activity at 15 uM (Rvb= 3.1%); type: functional
# T-24 [30] = assay: Induction of apoptosis in human T24 cells assessed as increase in caspase 9 activity at 10 uM (Rvb= 7.2%); type: functional
# T-24 [31] = assay: Induction of cell cycle arrest in human T24 cells assessed as accumulation of cells at G1 phase at 10 uM incubated for 24 hrs by propidium iodide/RNase A staining based flow cytometry analysis (reference value: 51.71 %); type: functional
# T-24 [32] = assay: Induction of cell cycle arrest in human T24 cells assessed as accumulation of cells at S phase at 15 uM incubated for 24 hrs by propidium iodide/RNase A staining based flow cytometry analysis (reference value: 42.47 %); type: functional
# T-24 [33] = assay: Induction of apoptosis in human T24 cells assessed as late apoptotic cells at 10 uM incubated for 24 hrs by Annexin-V/PI staining based flow cytometry analysis (reference value: 0.543 %); type: functional
# T-24 [34] = assay: Induction of apoptosis in human T24 cells assessed as early apoptotic cells at 10 uM incubated for 24 hrs by Annexin-V/PI staining based flow cytometry analysis (reference value: 3.27 %); type: functional
# T-24 [35] = assay: Induction of apoptosis in human T24 cells assessed as late apoptotic cells at 15 uM incubated for 24 hrs by Annexin-V/PI staining based flow cytometry analysis (reference value: 0.543 %); type: functional
# T-24 [36] = assay: Induction of apoptosis in human T24 cells assessed as viable cells at 15 uM incubated for 24 hrs by Annexin-V/PI staining based flow cytometry analysis (reference value: 94.3 %); type: functional; conditions: read-out: Activity
# T-24 [37] = assay: Induction of apoptosis in human T24 cells assessed as late apoptotic cells at 20 uM incubated for 24 hrs by Annexin-V/PI staining based flow cytometry analysis (reference value: 0.543 %); type: functional
compound,measurement,setting,value
O=C1c2cc([N+](=O)[O-])ccc2-c2ccc([N+](=O)[O-])c3ccnc1c23,Activity,T-24 [1],Active
same,Activity,T-24 [2],20.1%
same,Activity,T-24 [3],Active
same,Activity,T-24 [4],Active
same,Activity,T-24 [5],Active
same,Activity,T-24 [6],Active
same,Activity,T-24 [7],Active
same,Activity,T-24 [8],28.9%
same,Activity,T-24 [9],14.18%
same,Activity,T-24 [10],3.14%
same,Activity,T-24 [11],Active
O=C1c2ccccc2-c2ccc([N+](=O)[O-])c3ccnc1c23,Activity,T-24 [12],Active
same,Activity,T-24 [13],Active
same,Activity,T-24 [14],Active
same,Activity,T-24 [15],53.6%
same,Activity,T-24 [16],61.26%
same,Activity,T-24 [17],35.21%
same,viability at 0.5 µM,T-24 [18],58.1%
same,Activity,T-24 [19],Active
same,Activity,T-24 [20],Active
same,Activity,T-24 [21],Active
O=C1c2ccccc2-c2cccc3ccnc1c23,inhibition (INH),T-24 [22],100%
same,Activity,[23],Non-Toxic
same,Activity,T-24 [24],Dde
same,Activity,T-24 [25],Active
same,Activity,T-24 [26],Active
same,Activity,T-24 [27],Active
same,Activity,T-24 [28],Active
same,Activity,T-24 [29],25.5%
same,Activity,T-24 [30],24.8%
same,Activity,T-24 [31],31.45%
same,Activity,T-24 [32],46.29%
same,Activity,T-24 [33],3.25%
same,Activity,T-24 [34],14.4%
same,Activity,T-24 [35],6.56%
same,viability at 15 µM,T-24 [36],58%
same,Activity,T-24 [37],4.89%
